Experimental data: ChEMBL document CHEMBL1154134, “Scalarane sesterterpenes from the sponge Smenospongia sp” (J Nat Prod, 2008)
Values after ≈ are worked out from the molar mass of the structure shown.

How the values were obtained:
[1] = test system: Staphylococcus aureus; assay: Antibacterial activity against Staphylococcus aureus ATCC 65389 after 24 hrs by twofold dilution method; assay type: functional; conditions: ATCC 65389, 24 h
[2] = test system: Bacillus subtilis; assay: Antibacterial activity against Bacillus subtilis ATCC 6633 after 24 hrs by twofold dilution method; assay type: functional; conditions: ATCC 6633, 24 h
[3] = test system: Micrococcus luteus; assay: Antibacterial activity against Micrococcus luteus IFC 12708 after 24 hrs by twofold dilution method; assay type: functional; conditions: IFC 12708, 24 h
[4] = test system: Proteus vulgaris; assay: Antibacterial activity against Proteus vulgaris ATCC 3851 after 24 hrs by twofold dilution method; assay type: functional; conditions: ATCC 3851, 24 h
[5] = test system: Salmonella typhimurium; assay: Antibacterial activity against Salmonella Typhimurium ATCC 14028 after 24 hrs by two-fold dilution method; assay type: functional, Salmonella enterica subsp. enterica serovar Typhimurium; conditions: Salmonella enterica, ATCC 14028, 24 h
[6] = test system: Escherichia coli; assay: Antibacterial activity against Escherichia coli ATCC 25922 after 24 hrs by twofold dilution method; assay type: functional; conditions: ATCC 25922, 24 h
[7] = test system: K562; assay: Cytotoxicity against human K562 cells after 48 hrs by SRB assay; assay type: functional; conditions: K562, 48 h, read-out: LC50 (the source's name)
[8] = biological target: Isocitrate lyase (Magnaporthe oryzae (strain 70-15 / FGSC 8958) (Rice blast fungus)(Pyricularia oryzae), UniProt P0CT06); assay: Inhibition of Magnaporthe grisea isocitrate lyase; parameters: species or system Pyricularia grisea
Chain of Isocitrate lyase (P0CT06 whole entry): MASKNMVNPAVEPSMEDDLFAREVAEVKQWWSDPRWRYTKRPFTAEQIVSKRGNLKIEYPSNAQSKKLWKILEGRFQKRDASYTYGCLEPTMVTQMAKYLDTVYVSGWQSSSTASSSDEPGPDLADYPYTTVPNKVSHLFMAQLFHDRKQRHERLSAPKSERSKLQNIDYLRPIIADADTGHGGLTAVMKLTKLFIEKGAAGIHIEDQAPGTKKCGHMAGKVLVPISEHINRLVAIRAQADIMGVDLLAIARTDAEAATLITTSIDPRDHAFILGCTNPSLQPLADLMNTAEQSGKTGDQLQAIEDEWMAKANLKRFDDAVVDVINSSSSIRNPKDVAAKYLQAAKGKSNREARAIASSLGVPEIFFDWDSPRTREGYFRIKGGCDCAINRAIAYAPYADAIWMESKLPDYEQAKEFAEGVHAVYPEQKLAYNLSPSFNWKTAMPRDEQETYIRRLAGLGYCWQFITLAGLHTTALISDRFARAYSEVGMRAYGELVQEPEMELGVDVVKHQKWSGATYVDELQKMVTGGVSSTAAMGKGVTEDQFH

SMILES	MIC [1] [µg/mL]	MIC [2] [µg/mL]	MIC [3] [µg/mL]	MIC [4] [µg/mL]	MIC [5] [µg/mL]	MIC [6] [µg/mL]	CC50 [7] [µg/mL]	IC50 [8] [µM]
COC(=O)C1=CC[C@@H]2[C@](C)(CC[C@H]3[C@@]2(C)CC[C@H]2C(C)(C)CCC[C@@]23COC(C)=O)[C@H]1C=O	25 (≈ 54.5 µM)	0.78 (≈ 1.7 µM)	12.5 (≈ 27.3 µM)	6.25 (≈ 13.6 µM)	12.5 (≈ 27.3 µM)	> 100	8.6 (≈ 18.8 µM)	120
CC1=C(O)/C(=C/[C@H](C)CC/C=C(/C)CCC/C=C(/C)CCc2ccoc2)OC1=O	6.25 (≈ 15.7 µM)	6.25 (≈ 15.7 µM)	3.12 (≈ 7.83 µM)	6.25 (≈ 15.7 µM)	12.5 (≈ 31.4 µM)	> 100	7.3 (≈ 18.3 µM)	78.3
CC(=O)O[C@@H]1OC=C2[C@@H](OC(C)=O)C[C@@H]3[C@](C)(CC[C@H]4[C@@]3(C)CC[C@H]3C(C)(C)CCC[C@@]34C=O)[C@H]21	> 100	> 100	> 100	> 100	> 100	> 100	17.5 (≈ 36 µM)	> 205
CC1(C)S[C@@H]2[C@H](NC(=O)[C@H](N)c3ccccc3)C(=O)N2[C@H]1C(=O)O [AMPICILLIN]	1.56 (≈ 4.46 µM)	1.56 (≈ 4.46 µM)	1.56 (≈ 4.46 µM)	3.12 (≈ 8.93 µM)	3.12 (≈ 8.93 µM)	12.5 (≈ 35.8 µM)	–	–
COc1cccc2c1C(=O)c1c(O)c3c(c(O)c1C2=O)C[C@@](O)(C(=O)CO)C[C@@H]3O[C@H]1C[C@H](N)[C@H](O)[C@H](C)O1 [DOXORUBICIN]	–	–	–	–	–	–	4.9 (≈ 9.02 µM)	–
O=C(O)CC[N+](=O)[O-]	–	–	–	–	–	–	–	50.8
CC1=C(O)/C(=C/[C@H](C)CCC/C(C)=C/CC/C(C)=C/CCc2ccoc2)OC1=O	12.5 (≈ 31.4 µM)	6.25 (≈ 15.7 µM)	6.25 (≈ 15.7 µM)	6.25 (≈ 15.7 µM)	6.25 (≈ 15.7 µM)	> 100	43.7 (≈ 110 µM)	67.7
CC(=O)OC[C@]12CCCC(C)(C)[C@@H]1CC[C@]1(C)[C@@H]2CC[C@]2(C)c3cocc3CC[C@@H]12	> 100	3.12 (≈ 7.56 µM)	25 (≈ 60.6 µM)	> 100	> 100	> 100	2.3 (≈ 5.57 µM)	> 242
CC(=O)O[C@@H]1OC(=O)C2=CC[C@@H]3[C@](C)(CC[C@H]4[C@@]3(C)CC[C@H]3C(C)(C)CCC[C@@]34CO)[C@H]21	> 100	1.56 (≈ 3.51 µM)	3.12 (≈ 7.02 µM)	> 100	6.25 (≈ 14.1 µM)	> 100	22.5 (≈ 50.6 µM)	> 225
CC(=O)O[C@@H]1OC=C2[C@@H](OC(C)=O)C[C@@H]3[C@](C)(CC[C@H]4[C@@]3(C)CC[C@H]3C(C)(C)CCC[C@@]34CO)[C@H]21	> 100	0.78 (≈ 1.6 µM)	100 (≈ 205 µM)	> 100	6.25 (≈ 12.8 µM)	> 100	0.13 (≈ 0.266 µM)	> 205
CC(=O)OC[C@]12CCCC(C)(C)[C@@H]1CC[C@@]1(C)[C@@H]3C[C@H](OC(C)=O)C4=CO[C@@H](OC(C)=O)[C@@H]4[C@@]3(C)CC[C@@H]12	> 100	> 100	> 100	> 100	> 100	> 100	6.8 (≈ 12.8 µM)	> 188
CO[C@@H]1OCC2=CC[C@@H]3[C@](C)(CC[C@H]4[C@@]3(C)CC[C@H]3C(C)(C)CCC[C@@]34CO)[C@H]21	> 100	50 (≈ 124 µM)	> 100	> 100	6.25 (≈ 15.5 µM)	> 100	0.11 (≈ 0.273 µM)	104
COC(=O)C1=CC[C@@H]2[C@](C)(CC[C@H]3[C@@]2(C)CC[C@H]2C(C)(C)CCC[C@@]23COC(C)=O)[C@@H]1C=O	> 100	> 100	> 100	> 100	> 100	> 100	3.7 (≈ 8.07 µM)	> 218
C/C(=C\CC/C(C)=C/C[C@H](O)c1ccoc1)CC/C=C(\C)CC(=O)CC(C)C	> 100	6.25 (≈ 16.2 µM)	> 100	> 100	> 100	> 100	5.7 (≈ 14.7 µM)	> 259
CC(=O)OC[C@]12CCCC(C)(C)[C@@H]1CC[C@@]1(C)[C@@H]3CC=C(C(=O)O)[C@@H](C=O)[C@@]3(C)CC[C@@H]12	> 100	> 100	> 100	100 (≈ 225 µM)	> 100	> 100	4.2 (≈ 9.45 µM)	> 225
CC(=O)O[C@@H]1OC=C2[C@H]1[C@@]1(C)CC[C@H]3[C@@](C)(CC[C@H]4C(C)(C)CCC[C@]34C)[C@@H]1C[C@@H]2O	> 100	3.12 (≈ 7.25 µM)	> 100	> 100	12.5 (≈ 29 µM)	> 100	5.8 (≈ 13.5 µM)	> 232
CC1(C)CCC[C@@]2(CO)[C@H]1CC[C@]1(C)[C@@H]2CC[C@]2(C)c3cocc3CC[C@@H]12	> 100	1.56 (≈ 4.21 µM)	6.25 (≈ 16.9 µM)	> 100	12.5 (≈ 33.7 µM)	> 100	0.97 (≈ 2.62 µM)	123
